Several values for one entry are separate records, joined by “and”; a condition that tells them apart may be missing. Equal entries are not always repeated. Toxic doses and inconclusive results are not listed. No stated cut-off is given here; in the data, active means T/C of 150% or more; inactive means T/C below 125%.
Tested on: L1210 leukemia ip in BDF1 mice, survival T/C
Assay: NCI In Vivo Anticancer Drug Screen. Data for tumor model L1210 Leukemia (intraperitoneal) in B6D2F1 (BDF1) mice
Details: endpoint: mean survival time, higher = longer survival
Procedure, shortened: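 Antitumor effect is assessed in tumor-bearing animals. Survival in the compound arm is compared with a vehicle-dosed control arm and expressed as their quotient.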

[1] = dose: 25.0 mg/kg/injection, schedule: Q01DX009 (ip), vehicle: Klucel (hydroxypropylcellulose) (HPC)
[2] = dose: 50.0 mg/kg/injection, schedule: Q01DX009 (ip), vehicle: Klucel (hydroxypropylcellulose) (HPC)
[3] = dose: 100.0 mg/kg/injection, schedule: Q01DX009 (ip), vehicle: Klucel (hydroxypropylcellulose) (HPC)
[4] = dose: 200.0 mg/kg/injection, schedule: Q01DX009 (ip), vehicle: Klucel (hydroxypropylcellulose) (HPC)
[5] = dose: 100.0 mg/kg/injection, schedule: Q04DX003 (ip), vehicle: saline with Tween-80
[6] = dose: 200.0 mg/kg/injection, schedule: Q04DX003 (ip), vehicle: saline with Tween-80
[7] = dose: 400.0 mg/kg/injection, schedule: Q04DX003 (ip), vehicle: saline with Tween-80

Measured: T/C

O=S(=O)(O)Cc1c(O)ccc2ccccc12
inactive: [1] 96 % of control | [2] 104 % of control | [3] 96 % of control | dose: 100.0 mg/kg/injection, schedule: Q04DX002 (ip), vehicle: saline with Tween-80 100 % of control | dose: 200.0 mg/kg/injection, schedule: Q04DX002 (ip), vehicle: saline with Tween-80 100 % of control | dose: 400.0 mg/kg/injection, schedule: Q04DX002 (ip), vehicle: saline with Tween-80 103 % of control

CC(C)(C)N1CCOCC1
inactive: dose: 25.0 mg/kg/injection, schedule: Q01DX009 (ip), vehicle: acetone 91 % of control | dose: 50.0 mg/kg/injection, schedule: Q01DX009 (ip), vehicle: acetone 92 % of control | dose: 100.0 mg/kg/injection, schedule: Q01DX009 (ip), vehicle: acetone 87 % of control

CC(=O)c1cc(N)ccc1SC#N
inactive: dose: 5.0 mg/kg/injection, schedule: Q01DX009 (ip), vehicle: saline with Tween-80 102 % of control | dose: 5.0 mg/kg/injection, schedule: Q04DX003 (ip), vehicle: saline with Tween-80 101 % of control | dose: 10.0 mg/kg/injection, schedule: Q01DX009 (ip), vehicle: saline with Tween-80 96 % of control | dose: 10.0 mg/kg/injection, schedule: Q04DX003 (ip), vehicle: saline with Tween-80 101 % of control | dose: 20.0 mg/kg/injection, schedule: Q01DX009 (ip), vehicle: saline with Tween-80 100 % of control | dose: 20.0 mg/kg/injection, schedule: Q04DX003 (ip), vehicle: saline with Tween-80 103 % of control

Cc1ccc(-n2c(O)c(N=Nc3ccc(Cl)cc3)c(=O)n(-c3ccc(C)cc3)c2=S)cc1
inactive: dose: 37.5 mg/kg/injection, schedule: Q01DX001 (ip), vehicle: Klucel (hydroxypropylcellulose) (HPC) 97 % of control | dose: 75.0 mg/kg/injection, schedule: Q01DX001 (ip), vehicle: Klucel (hydroxypropylcellulose) (HPC) 107 % of control | dose: 150.0 mg/kg/injection, schedule: Q01DX001 (ip), vehicle: Klucel (hydroxypropylcellulose) (HPC) 96 % of control

O=C(/C=C/C(=O)NCc1ccccc1)NCc1ccccc1
inactive: dose: 100.0 mg/kg/injection, schedule: Q04DX003 (ip), vehicle: saline 100 % of control | dose: 200.0 mg/kg/injection, schedule: Q04DX003 (ip), vehicle: saline 103 % of control | dose: 400.0 mg/kg/injection, schedule: Q04DX003 (ip), vehicle: saline 100 % of control

Cc1ccc(NC(=O)Oc2cc(C)ccc2C(C)C)cc1
inactive: [3] 113 % of control | [4] 94 % of control | dose: 400.0 mg/kg/injection, schedule: Q01DX009 (ip), vehicle: Klucel (hydroxypropylcellulose) (HPC) 97 % of control

CC(=O)c1ccccc1[N+](=O)[O-]
inactive: [5] 107 % of control | [6] 96 % of control | [7] 94 % of control

NC(=O)COc1ncc(Cl)cc1Cl
inactive: dose: 100.0 mg/kg/injection, schedule: Q04DX002 (ip), vehicle: Klucel (hydroxypropylcellulose) (HPC) 96 % of control | dose: 200.0 mg/kg/injection, schedule: Q04DX002 (ip), vehicle: Klucel (hydroxypropylcellulose) (HPC) 101 % of control | dose: 400.0 mg/kg/injection, schedule: Q04DX002 (ip), vehicle: Klucel (hydroxypropylcellulose) (HPC) 104 % of control

O=C(CSc1cc(Cl)c(Cl)cc1Cl)Nc1cccc(Cl)c1
inactive: dose: 100.0 mg/kg/injection, schedule: Q01DX001 (ip), vehicle: saline with Tween-80 95 % of control | dose: 200.0 mg/kg/injection, schedule: Q01DX001 (ip), vehicle: saline with Tween-80 98 % of control | dose: 400.0 mg/kg/injection, schedule: Q01DX001 (ip), vehicle: saline with Tween-80 90 % of control

O=C1NC(=O)C(c2ccc(Cl)cc2)N1 (stereo unspecified)
inactive: dose: 50.0 mg/kg/injection, schedule: Q01DX001 (ip), vehicle: saline 100 % of control | dose: 100.0 mg/kg/injection, schedule: Q01DX001 (ip), vehicle: saline 94 % of control | dose: 200.0 mg/kg/injection, schedule: Q01DX001 (ip), vehicle: saline 97 % of control | dose: 400.0 mg/kg/injection, schedule: Q01DX001 (ip), vehicle: saline 96 % of control

Clc1ccc(Cl)nn1
inactive: dose: 100.0 mg/kg/injection, schedule: Q04DX002 (ip), vehicle: saline 102 % of control | dose: 200.0 mg/kg/injection, schedule: Q04DX002 (ip), vehicle: saline 87 % of control | dose: 400.0 mg/kg/injection, schedule: Q04DX002 (ip), vehicle: saline 87 % of control

CCC(=O)c1ccc(-c2ccccc2)cc1
inactive: dose: 175.0 mg/kg/injection, schedule: Q04DX002 (ip), vehicle: Klucel (hydroxypropylcellulose) (HPC) 102 % of control | dose: 350.0 mg/kg/injection, schedule: Q04DX002 (ip), vehicle: Klucel (hydroxypropylcellulose) (HPC) 98 % of control

CC(C)(SCCc1ccc([N+](=O)[O-])cc1)C(N)C(=O)O (stereo unspecified)
inactive: dose: 12.0 mg/kg/injection, schedule: Q01DX009 (ip), vehicle: Klucel (hydroxypropylcellulose) (HPC) 93 % of control | dose: 12.5 mg/kg/injection, schedule: Q04DX003 (ip), vehicle: Klucel (hydroxypropylcellulose) (HPC) 91 % of control | [1] 104 % of control | dose: 25.0 mg/kg/injection, schedule: Q04DX003 (ip), vehicle: Klucel (hydroxypropylcellulose) (HPC) 91 % of control | [2] 103 % of control | dose: 50.0 mg/kg/injection, schedule: Q04DX003 (ip), vehicle: Klucel (hydroxypropylcellulose) (HPC) 93 % of control

CCCCCCCCCCCCOc1ccc(C(=O)O)cc1
inactive: dose: 50.0 mg/kg/injection, schedule: Q01DX001 (ip), vehicle: other 100 % of control | dose: 100.0 mg/kg/injection, schedule: Q01DX001 (ip), vehicle: other 100 % of control | dose: 200.0 mg/kg/injection, schedule: Q01DX001 (ip), vehicle: other 93 % of control | dose: 400.0 mg/kg/injection, schedule: Q01DX001 (ip), vehicle: other 93 % of control

CC(C)(C)C1CC(C(F)(F)F)(C(F)(F)F)OS(=O)O1 (stereo unspecified)
inactive: dose: 12.5 mg/kg/injection, schedule: Q01DX009 (ip), vehicle: saline 96 % of control | dose: 12.5 mg/kg/injection, schedule: Q04DX003 (ip), vehicle: saline 102 % of control | dose: 25.0 mg/kg/injection, schedule: Q01DX009 (ip), vehicle: saline 94 % of control | dose: 25.0 mg/kg/injection, schedule: Q04DX003 (ip), vehicle: saline 91 % of control | dose: 50.0 mg/kg/injection, schedule: Q01DX009 (ip), vehicle: saline 100 % of control | dose: 50.0 mg/kg/injection, schedule: Q04DX003 (ip), vehicle: saline 94 % of control

COc1cc(Br)c(CC2=[N+](C)CCc3cc(OC)c(OCc4ccccc4)cc32)cc1OC
inactive: [5] 98 % of control | [6] 101 % of control | [7] 101 % of control

COc1cc(N(CCCl)CCCl)c(OC)cc1C=Nc1cccc(C(F)(F)F)c1
inactive: dose: 100.0 mg/kg/injection, schedule: Q01DX001 (ip), vehicle: carboxymethylcellulose (CMC) 120 % of control | dose: 200.0 mg/kg/injection, schedule: Q01DX001 (ip), vehicle: carboxymethylcellulose (CMC) 115 % of control | dose: 400.0 mg/kg/injection, schedule: Q01DX001 (ip), vehicle: carboxymethylcellulose (CMC) 98 % of control

NC1CCc2ccccc2-c2ccccc21 (stereo unspecified)
inactive: dose: 10.0 mg/kg/injection, schedule: Q01DX001 (ip), vehicle: saline 101 % of control | dose: 20.0 mg/kg/injection, schedule: Q01DX001 (ip), vehicle: saline 108 % of control | dose: 40.0 mg/kg/injection, schedule: Q01DX001 (ip), vehicle: saline 101 % of control

Cc1ccc(NC(=O)OC/C=C/c2ccccc2)cc1NC(=O)OC/C=C/c1ccccc1
inactive: [4] 93 % of control

COc1cc(NC(C)CCCN)c2ncccc2c1 (stereo unspecified)
inactive: dose: 25.0 mg/kg/injection, schedule: Q04DX003 (ip), vehicle: saline with Tween-80 104 % of control | dose: 50.0 mg/kg/injection, schedule: Q04DX003 (ip), vehicle: saline with Tween-80 95 % of control | [5] 95 % of control and 105 % of control
